In ChEMBL document CHEMBL1201862, “PubChem BioAssay data set” (2004):
Where “and” joins values, the source holds several entries; their conditions need not be identical. Equal values may be shown once. Calls of active or inactive are those of the source.

Experiments:
[1] = CEM21 cell cytotoxicity, dose response, cytotoxicity control, plate reader, dry powder (AID 687026); type: functional, cell-based
[2] = HIV Env cell-cell fusion inhibitors, dose response, HIV entry, plate reader, dry powder (AID 687023); type: functional, cell-based
[3] = molecular target: T1, Disintegrin and metalloproteinase domain-containing protein 17 (Homo sapiens, UniProt P78536); test: exosite inhibitors of ADAM17, dose response, biochemical (AID 743260)
T1 sequence (P78536 whole entry, the tested form may be a part): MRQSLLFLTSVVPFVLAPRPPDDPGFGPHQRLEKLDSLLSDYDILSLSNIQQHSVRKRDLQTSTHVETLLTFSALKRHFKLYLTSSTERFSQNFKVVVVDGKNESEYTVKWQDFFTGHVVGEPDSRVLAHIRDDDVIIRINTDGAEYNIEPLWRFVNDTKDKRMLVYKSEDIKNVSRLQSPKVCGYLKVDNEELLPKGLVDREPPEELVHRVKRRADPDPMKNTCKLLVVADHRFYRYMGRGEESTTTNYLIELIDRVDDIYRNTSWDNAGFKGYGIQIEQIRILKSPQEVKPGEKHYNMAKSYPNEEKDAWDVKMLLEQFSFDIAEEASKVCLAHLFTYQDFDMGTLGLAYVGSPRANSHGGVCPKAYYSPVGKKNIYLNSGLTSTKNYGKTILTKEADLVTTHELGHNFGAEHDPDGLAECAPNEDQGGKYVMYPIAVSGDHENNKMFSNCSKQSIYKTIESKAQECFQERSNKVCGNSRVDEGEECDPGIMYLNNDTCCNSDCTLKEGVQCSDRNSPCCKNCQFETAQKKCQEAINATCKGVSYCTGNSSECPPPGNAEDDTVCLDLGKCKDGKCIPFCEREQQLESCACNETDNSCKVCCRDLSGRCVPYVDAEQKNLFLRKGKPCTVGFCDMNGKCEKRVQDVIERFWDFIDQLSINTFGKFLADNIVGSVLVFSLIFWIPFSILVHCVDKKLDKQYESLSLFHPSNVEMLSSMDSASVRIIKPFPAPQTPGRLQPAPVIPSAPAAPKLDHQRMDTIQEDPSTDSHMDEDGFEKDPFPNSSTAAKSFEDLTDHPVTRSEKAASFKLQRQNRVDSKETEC

[4] = ADAM10 protease inhibitors, dose response, selectivity assay for ADAM17 exosite inhibitor project, biochemical, FRET peptide substrate, recombinant human ADAM10 (AID 743259);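 note: ADAM10 enzyme cleaving a FRET peptide substrate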
[5] = Late stage assay provider results from the probe development effort to identify selective inhibitors of heat shock protein 90 (HSP90): Absorbance-based cell proliferation assay in SKBR3 cells.; type: functional; conditions: SK-BR-3
[6] = Late stage assay provider results from the probe development effort to identify selective inhibitors of heat shock protein 90 (HSP90): Absorbance-based cell proliferation assay in MCF7 cells.; type: functional
[7] = molecular target: T2, Histone-lysine N-methyltransferase NSD2 (Homo sapiens, UniProt O96028); type: biochemical
T2 sequence (O96028 whole entry): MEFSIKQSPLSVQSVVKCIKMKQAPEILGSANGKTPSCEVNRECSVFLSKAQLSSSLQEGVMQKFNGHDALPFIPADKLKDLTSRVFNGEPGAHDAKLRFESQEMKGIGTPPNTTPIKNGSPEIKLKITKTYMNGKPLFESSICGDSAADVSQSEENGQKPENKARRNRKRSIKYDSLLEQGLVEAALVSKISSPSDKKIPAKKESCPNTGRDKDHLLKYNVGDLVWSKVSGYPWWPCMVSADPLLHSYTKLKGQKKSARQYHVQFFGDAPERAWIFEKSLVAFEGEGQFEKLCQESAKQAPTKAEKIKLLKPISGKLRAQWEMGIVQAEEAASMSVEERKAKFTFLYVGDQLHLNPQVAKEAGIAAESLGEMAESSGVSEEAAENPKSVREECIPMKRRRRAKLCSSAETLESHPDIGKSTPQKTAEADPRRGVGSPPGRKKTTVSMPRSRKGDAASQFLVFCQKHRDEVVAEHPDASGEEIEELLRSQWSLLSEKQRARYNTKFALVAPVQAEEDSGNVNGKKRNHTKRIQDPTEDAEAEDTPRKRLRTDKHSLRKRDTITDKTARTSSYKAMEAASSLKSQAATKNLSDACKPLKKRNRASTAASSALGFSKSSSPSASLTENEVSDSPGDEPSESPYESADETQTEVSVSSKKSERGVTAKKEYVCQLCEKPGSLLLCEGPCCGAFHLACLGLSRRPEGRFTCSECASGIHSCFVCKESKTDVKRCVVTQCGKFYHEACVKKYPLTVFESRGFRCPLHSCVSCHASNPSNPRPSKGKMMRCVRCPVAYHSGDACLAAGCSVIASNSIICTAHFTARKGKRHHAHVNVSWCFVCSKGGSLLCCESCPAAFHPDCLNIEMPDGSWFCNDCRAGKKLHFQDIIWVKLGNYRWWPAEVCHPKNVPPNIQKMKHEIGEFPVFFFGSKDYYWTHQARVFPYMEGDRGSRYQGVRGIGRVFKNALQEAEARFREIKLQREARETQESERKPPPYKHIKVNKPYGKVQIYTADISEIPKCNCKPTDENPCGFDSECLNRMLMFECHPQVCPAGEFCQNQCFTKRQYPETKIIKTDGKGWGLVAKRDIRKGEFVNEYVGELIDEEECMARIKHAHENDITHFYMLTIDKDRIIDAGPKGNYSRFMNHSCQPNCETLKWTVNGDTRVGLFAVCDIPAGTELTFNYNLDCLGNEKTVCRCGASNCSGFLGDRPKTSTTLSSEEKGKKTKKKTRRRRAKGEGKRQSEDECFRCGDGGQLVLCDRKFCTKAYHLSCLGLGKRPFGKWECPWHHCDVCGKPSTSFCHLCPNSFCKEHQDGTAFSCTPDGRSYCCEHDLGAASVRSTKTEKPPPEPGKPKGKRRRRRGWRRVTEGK

[8] = molecular target: 1-phosphatidylinositol 4,5-bisphosphate phosphodiesterase gamma-1 (Homo sapiens, UniProt P19174); test: Counterscreen for inhibitors of phospholipase C isozymes (PLC-B3): Fluorescence-based biochemical high throughput dose response assay to identify inhibitors of phospholipase C isozymes (PLC-gamma1).
1-phosphatidylinositol 4,5-bisphosphate phosphodiesterase gamma-1, sequence (P19174 whole entry): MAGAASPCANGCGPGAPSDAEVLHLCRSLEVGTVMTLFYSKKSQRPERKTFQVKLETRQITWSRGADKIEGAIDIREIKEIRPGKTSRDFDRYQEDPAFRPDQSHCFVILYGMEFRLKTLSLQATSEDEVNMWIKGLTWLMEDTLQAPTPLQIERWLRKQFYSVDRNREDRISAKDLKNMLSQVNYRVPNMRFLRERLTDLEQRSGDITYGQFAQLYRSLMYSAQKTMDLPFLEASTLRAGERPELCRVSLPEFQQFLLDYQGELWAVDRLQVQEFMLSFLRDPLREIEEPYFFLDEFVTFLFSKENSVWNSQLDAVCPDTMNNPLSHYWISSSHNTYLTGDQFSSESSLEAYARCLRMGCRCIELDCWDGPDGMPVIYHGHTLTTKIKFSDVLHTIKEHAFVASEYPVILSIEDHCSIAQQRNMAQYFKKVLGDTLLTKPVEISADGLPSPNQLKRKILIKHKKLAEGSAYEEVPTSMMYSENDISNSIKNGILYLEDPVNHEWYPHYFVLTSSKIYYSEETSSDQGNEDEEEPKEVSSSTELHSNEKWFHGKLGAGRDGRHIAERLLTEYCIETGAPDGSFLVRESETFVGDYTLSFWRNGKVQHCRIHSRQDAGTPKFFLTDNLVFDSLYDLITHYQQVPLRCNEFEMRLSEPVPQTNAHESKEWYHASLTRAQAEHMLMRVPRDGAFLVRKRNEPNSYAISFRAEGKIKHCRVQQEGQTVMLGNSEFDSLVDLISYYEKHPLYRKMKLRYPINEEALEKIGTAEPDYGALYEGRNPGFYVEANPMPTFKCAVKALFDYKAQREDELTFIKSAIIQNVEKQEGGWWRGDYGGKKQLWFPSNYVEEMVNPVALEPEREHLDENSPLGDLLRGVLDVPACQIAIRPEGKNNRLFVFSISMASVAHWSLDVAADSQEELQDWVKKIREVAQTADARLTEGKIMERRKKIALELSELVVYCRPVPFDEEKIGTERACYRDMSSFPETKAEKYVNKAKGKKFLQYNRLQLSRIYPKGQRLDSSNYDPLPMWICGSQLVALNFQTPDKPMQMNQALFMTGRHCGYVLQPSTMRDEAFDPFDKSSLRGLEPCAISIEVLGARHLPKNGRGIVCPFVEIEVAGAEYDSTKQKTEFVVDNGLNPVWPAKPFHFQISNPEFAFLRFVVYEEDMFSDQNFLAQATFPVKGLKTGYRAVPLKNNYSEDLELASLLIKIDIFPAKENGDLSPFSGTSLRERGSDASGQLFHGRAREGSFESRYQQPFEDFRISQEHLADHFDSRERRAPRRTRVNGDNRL

[9] = molecular target: 1-phosphatidylinositol 4,5-bisphosphate phosphodiesterase beta-3 (Homo sapiens, UniProt Q01970); test: Fluorescence-based biochemical high throughput dose response assay to identify inhibitors of phospholipase C isozymes (PLC-B3).
1-phosphatidylinositol 4,5-bisphosphate phosphodiesterase beta-3, sequence (Q01970 whole entry): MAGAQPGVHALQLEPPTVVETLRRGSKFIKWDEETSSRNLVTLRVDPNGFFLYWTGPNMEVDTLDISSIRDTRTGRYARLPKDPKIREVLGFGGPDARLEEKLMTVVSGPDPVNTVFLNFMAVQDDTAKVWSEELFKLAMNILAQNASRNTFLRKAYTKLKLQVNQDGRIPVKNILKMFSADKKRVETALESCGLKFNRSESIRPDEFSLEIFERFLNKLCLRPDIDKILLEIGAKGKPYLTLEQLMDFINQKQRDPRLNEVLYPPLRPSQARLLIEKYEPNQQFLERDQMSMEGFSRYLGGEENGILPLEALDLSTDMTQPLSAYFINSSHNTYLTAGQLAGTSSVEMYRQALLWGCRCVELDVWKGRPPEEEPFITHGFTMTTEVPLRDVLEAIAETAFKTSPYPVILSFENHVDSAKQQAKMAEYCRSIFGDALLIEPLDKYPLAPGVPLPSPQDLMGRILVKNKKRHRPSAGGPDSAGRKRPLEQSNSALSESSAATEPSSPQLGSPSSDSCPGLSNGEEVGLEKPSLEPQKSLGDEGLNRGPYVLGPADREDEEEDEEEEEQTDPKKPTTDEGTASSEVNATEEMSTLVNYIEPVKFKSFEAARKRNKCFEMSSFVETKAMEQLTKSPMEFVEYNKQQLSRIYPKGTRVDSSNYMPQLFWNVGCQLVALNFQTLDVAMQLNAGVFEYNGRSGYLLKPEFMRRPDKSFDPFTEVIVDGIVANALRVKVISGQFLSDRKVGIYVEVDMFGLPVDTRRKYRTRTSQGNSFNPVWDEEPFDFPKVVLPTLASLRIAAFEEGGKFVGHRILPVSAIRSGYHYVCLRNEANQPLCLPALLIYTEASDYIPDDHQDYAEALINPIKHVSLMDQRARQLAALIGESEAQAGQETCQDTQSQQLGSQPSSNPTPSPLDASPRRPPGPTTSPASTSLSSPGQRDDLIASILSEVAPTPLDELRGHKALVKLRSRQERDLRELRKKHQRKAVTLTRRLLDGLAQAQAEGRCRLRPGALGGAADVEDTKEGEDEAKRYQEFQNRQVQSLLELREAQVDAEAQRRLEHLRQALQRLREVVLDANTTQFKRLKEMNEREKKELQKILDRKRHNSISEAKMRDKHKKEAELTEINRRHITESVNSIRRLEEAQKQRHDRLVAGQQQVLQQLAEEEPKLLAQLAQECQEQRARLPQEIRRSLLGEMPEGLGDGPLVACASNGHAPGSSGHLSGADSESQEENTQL

[10] = IGROV1 ovarian cancer cell cytotoxicity, dose response, PAX8 inhibitor project, plate reader, dry powder samples (AID 743043); type: functional, cell-based; conditions: IGROV-1
[11] = cytotoxicity in OVCAR8 ovarian cancer cells, dose response, PAX8 project, cell-based, plate reader, dry powder samples (AID 743197); type: functional; conditions: OVCAR-8
Paired box protein Pax-8 = Paired box protein Pax-8 (Homo sapiens, UniProt Q06710); test: inhibitors of PAX8-driven TPO luciferase reporter, dose response, RMG-I cells, cherry-pick (AID 687027); type: functional, cell-based;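 note: luciferase reporter driven by Pax8 target thyroperoxidase promoter measured by SteadyGlo luminescence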
Paired box protein Pax-8, sequence (Q06710 whole entry): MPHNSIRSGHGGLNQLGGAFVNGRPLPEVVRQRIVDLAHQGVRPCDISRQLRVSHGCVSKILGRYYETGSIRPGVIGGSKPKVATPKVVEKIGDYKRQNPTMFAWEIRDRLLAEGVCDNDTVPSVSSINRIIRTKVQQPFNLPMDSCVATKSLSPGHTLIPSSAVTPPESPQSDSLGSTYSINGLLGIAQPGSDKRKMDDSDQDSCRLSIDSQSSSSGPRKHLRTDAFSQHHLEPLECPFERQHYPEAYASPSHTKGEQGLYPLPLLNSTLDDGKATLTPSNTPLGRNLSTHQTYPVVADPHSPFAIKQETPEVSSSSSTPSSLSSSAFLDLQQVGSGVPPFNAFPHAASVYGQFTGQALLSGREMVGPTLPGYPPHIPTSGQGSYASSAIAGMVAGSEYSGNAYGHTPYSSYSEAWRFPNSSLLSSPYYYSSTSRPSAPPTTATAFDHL

[12] = NIH:OVCAR-3 ovarian cancer cell cytotoxicity, dose response, PAX8 inhibitor project, plate reader, dry powder samples (AID 743044); type: functional, cell-based
[13] = reduction of Shn3 3'UTR firefly luciferase signal, dose response, Schnurri-3 inhibitor project, cell-based, Clone20 osteoblasts, cherry-pick, set 2 (AID 720490); type: functional;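 note: actives lower the luminescence signal as inhibitors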
[14] = inhibitors of control Renilla luciferase reporter, dose response, counter-screen for Shn3 3'UTR targeting project, Clone20-Shn3RL cells, dual-Glo, cherry-pick, set 2 (AID 720724); type: functional, cell-based; conditions: Dual-Go Shn3RL
[15] = Shn3 3'UTR reporter inhibitors, dose response, cell-based, Clone20 osteoblasts, firefly luciferase, cherry-picked (AID 624132); type: functional;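 note: firefly luciferase luminescence from reporter carrying the Shn3 3'UTR in osteoblasts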
[16] = molecular target: COUP transcription factor 2 (Homo sapiens, UniProt P24468); test: Luminescence-based cell-based high throughput dose response assay to identify inhibitors of COUP-TFII (NR2F2).; type: functional;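 note: HEK293 cells transiently cotransfected with COUP-TFII expression vector and reporter; luciferase reporter luminescence driven by COUP-TFII from the pX2-168 reporter plasmid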
COUP transcription factor 2, sequence (P24468 whole entry): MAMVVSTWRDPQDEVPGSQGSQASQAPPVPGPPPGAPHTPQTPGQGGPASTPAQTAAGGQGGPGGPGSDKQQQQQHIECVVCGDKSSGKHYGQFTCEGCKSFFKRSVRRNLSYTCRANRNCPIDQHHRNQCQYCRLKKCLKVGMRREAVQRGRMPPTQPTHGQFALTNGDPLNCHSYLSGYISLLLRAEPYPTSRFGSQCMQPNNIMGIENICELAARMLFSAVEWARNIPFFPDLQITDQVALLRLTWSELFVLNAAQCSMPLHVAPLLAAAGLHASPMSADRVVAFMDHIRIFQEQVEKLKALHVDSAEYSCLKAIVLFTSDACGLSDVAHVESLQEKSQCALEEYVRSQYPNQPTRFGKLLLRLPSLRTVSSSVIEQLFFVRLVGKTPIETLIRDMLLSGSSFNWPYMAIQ

[17] = molecular target: Neurotensin receptor type 1 (Homo sapiens, UniProt P30989); type: functional;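 note: Image-based confirmatory dose-response assay measuring agonist activity at NTR1; NTR1-expressing U2OS osteosarcoma cells imaged for beta-arrestin GFP spot formation; agonist potency where compounds increase beta-arrestin recruitment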
[18] = molecular target: T3, Heat shock factor protein 1 (Mus musculus, UniProt P38532); test: inhibition of MG132-induced HSE-luciferase signal, confirmation, cell-based, NIH3T3, luminescence, dose retest (AID 2382); type: functional;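 note: NIH3T3 fibroblasts with HSF1-driven luciferase reporter stressed by proteasome inhibitor MG132; luminescence from HSF1-driven luciferase expression after 8 hours of MG132 stress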
T3 sequence (P38532 whole entry): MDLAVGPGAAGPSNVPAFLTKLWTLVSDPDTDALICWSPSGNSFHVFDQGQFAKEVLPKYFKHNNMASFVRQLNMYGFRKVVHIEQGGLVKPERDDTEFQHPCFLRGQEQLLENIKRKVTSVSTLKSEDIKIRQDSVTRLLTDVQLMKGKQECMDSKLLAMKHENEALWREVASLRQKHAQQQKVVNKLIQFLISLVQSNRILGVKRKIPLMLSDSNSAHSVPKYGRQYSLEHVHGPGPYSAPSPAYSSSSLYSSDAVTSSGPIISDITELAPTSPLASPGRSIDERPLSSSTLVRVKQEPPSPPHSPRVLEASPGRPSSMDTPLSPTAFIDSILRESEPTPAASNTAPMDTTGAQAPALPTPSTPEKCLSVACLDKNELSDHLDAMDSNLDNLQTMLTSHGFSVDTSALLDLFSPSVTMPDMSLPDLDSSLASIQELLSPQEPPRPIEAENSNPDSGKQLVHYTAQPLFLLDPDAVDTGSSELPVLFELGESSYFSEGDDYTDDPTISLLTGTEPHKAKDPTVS

[19] = human group III sPLA2 inhibitors, dose response, biochemical, QFRET, IC50 (AID 743457);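 note: green fluorescence rise as the enzyme cleaves BODIPY PC-A2 in liposomes; potency for inhibition of the enzyme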
Cytochrome P450 2D6 = Cytochrome P450 2D6 (Homo sapiens, UniProt P10635);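 note: CYP2D6 member of a cytochrome P450 panel assay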
Cytochrome P450 2D6, sequence (P10635 whole entry): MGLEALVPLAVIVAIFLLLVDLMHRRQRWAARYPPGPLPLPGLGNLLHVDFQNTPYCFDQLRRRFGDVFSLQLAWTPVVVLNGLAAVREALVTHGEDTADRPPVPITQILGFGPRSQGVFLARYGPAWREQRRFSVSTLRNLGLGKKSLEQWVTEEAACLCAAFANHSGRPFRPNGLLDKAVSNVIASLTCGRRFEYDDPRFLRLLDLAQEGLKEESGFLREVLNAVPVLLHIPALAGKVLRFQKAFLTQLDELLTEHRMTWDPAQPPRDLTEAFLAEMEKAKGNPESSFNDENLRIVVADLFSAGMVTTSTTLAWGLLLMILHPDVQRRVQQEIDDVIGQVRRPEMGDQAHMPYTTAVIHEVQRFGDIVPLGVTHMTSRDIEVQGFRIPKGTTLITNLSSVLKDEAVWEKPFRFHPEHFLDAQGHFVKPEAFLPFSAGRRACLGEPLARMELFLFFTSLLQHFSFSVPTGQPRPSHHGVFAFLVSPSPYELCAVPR

Cytochrome P450 1A2 = molecular target: T4, Cytochrome P450 1A2 (Homo sapiens, UniProt P05177);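 note: PubChem cytochrome P450 panel assay, CYP1A2 panel member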
T4 sequence (P05177 whole entry): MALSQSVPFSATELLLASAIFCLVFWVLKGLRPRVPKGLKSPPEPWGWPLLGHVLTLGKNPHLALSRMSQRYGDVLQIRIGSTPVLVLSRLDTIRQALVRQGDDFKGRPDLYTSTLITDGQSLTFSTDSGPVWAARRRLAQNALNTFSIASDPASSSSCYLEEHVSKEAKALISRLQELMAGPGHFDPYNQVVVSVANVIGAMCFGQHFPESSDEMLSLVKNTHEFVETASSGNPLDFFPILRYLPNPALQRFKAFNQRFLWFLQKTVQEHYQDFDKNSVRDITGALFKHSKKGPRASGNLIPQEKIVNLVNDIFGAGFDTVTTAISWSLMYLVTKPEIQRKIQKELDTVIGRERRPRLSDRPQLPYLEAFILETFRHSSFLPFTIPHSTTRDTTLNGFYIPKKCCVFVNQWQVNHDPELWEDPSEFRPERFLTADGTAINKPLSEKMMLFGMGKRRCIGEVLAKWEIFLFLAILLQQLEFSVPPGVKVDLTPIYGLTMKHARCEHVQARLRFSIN

[20] = cytotoxicity in A549 cells, dose response, cytotoxicity control, cell-based, CellTiter-Glo luminescence, cherry-pick (AID 743484); type: functional
[21] = molecular target: Endoplasmic reticulum aminopeptidase 1 (Homo sapiens, UniProt Q9NZ08); test: ERAP1 aminopeptidase inhibitors, dose response, biochemical, cherry-pick, set 2, plate reader (AID 743314)
[22] = HEK293T cytotoxicity, dose response, cytotoxicity control for miR-122 modulator project, cell-based, inhibitor set, cherry-pick, set 2 (AID 720697); type: functional
[23] = molecular target: Metabotropic glutamate receptor 5 (Rattus norvegicus, UniProt P31424); test: Identification of a glycine sulfonamide based non-MPEP site positive allosteric potentiator (PAM) of mGlu5 (calcium_assay).; type: functional
[24] = A Cell-Based Confirmatory Screen for Compounds that Inhibit VEEV, TC-83 (8).; type: functional
[25] = ADAM10 inhibitors, peptide cleavage, dose response, biochemical, QFRET (AID 743254);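 note: ADAM10 enzyme with the DM2 quenched FRET peptide as substrate; EDANS fluorescence gain as the protease cuts the substrate; inhibitor potency against ADAM10 proteolytic activity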
[26] = molecular target: T1, Disintegrin and metalloproteinase domain-containing protein 17; test: ADAM17 protease inhibitors, dose response, counter-screen for ADAM10 exosite inhibitor project, biochemical, quenched FRET substrate (AID 743253)
[27] = THP-1 cell cytotoxicity, dose response, cytotoxicity control for Vif-APOBEC3G degradation inhibitor project, THP-1 cells (AID 1117359); type: functional; conditions: Human immunodeficiency virus 1, THP-1
[28] = molecular target: NAD-dependent protein deacylase sirtuin-5, mitochondrial (Homo sapiens, UniProt Q9NXA8); test: SIRT5 desuccinylase inhibitors, dose response, biochemical, fluorescence imaging, cherry-pick, set 5 (AID 720591);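 note: desuccinylation of succinyl peptide AMC substrate read as fluorescence after trypsin release; potency of inhibitors that lower fluorescence and may act on trypsin instead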
NAD-dependent protein deacylase sirtuin-5, mitochondrial, sequence (Q9NXA8 whole entry): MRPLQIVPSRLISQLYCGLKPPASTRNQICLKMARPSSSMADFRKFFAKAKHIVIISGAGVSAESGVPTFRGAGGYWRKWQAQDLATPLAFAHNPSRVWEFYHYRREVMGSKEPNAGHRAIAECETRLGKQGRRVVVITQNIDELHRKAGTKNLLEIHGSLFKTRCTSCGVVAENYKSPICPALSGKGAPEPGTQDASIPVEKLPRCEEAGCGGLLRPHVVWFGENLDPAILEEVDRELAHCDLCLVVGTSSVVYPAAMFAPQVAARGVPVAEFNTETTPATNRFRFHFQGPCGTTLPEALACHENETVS

With CCCOc1ccc(S(=O)(=O)NCc2cccnc2)cc1 the AC50 [1] was > 70 µM (inactive) and the AC50 [2] was 13.1 µM (active) and 17.6 µM (active).

For O=C(C[C@H]1C/C=C\CC[C@@H](Cc2ccc(F)cc2)C(=O)O[C@@H](c2ccccc2)CNC1=O)N[C@H](CO)Cc1ccccc1, the IC50 [3] was > 69.5 µM (inactive) and the IC50 [4] was > 69.5 µM (inactive).

For COC(=O)CCCCOc1ccc2cc(Br)c(=O)oc2c1, the IC50 [5] was > 100 µM (inactive) and the IC50 [6] was > 100 µM (inactive).

With O=C(CCCN1C(=O)/C(=C/c2ccco2)SC1=S)Nc1cccc(C(=O)O)c1 the AC50 [7] was > 20 µM (inactive), the IC50 [8] was > 122 µM (inactive) and the IC50 [9] was > 122 µM (inactive).

With C[C@@H]1CN([C@H](C)CO)C(=O)c2cc(NS(=O)(=O)c3ccc(Cl)cc3)ccc2O[C@@H](C)CCCCO[C@H]1CN(C)C(=O)Nc1ccc(C(F)(F)F)cc1 the AC50 [10] was 35.2 µM (active), the AC50 [11] was 29.6 µM (active) and the AC50 (Paired box protein Pax-8) was 2.86 µM (active). For the same compound, the AC50 [12] was 17.9 µM (active).

For Cc1ccc(CNC(=O)CSc2c3c(nc4ccc(Cl)cc24)CCCC3)o1, the AC50 [13] was 10.7 µM (active), the AC50 [14] was 37.6 µM (active) and the AC50 [15] was 5.98 µM (active).

With CCOC(=O)c1c(C)[nH]c(C(=O)OCC(=O)Nc2sccc2C(N)=O)c1C the IC50 [16] was 8.54 µM (active), the EC50 [17] was 3.35 µM (active) and the EC50 [18] was > 195 µM (not active).

In the case of O=C(CSCc1ccccc1Cl)NNC(=S)Nc1ccccc1, the IC50 [19] is reported as > 122 µM (inactive), the AC50 (Cytochrome P450 2D6) is reported as 14.1 µM (inconclusive) and the AC50 (Cytochrome P450 1A2) is reported as 15.8 µM (inconclusive).

In the case of CSc1nc(N)nc(SC2C=CCCC2)c1C#N (configuration not stated), the AC50 [20] is reported as > 52 µM (inactive).

With COc1ccc2c3c([nH]c2c1)[C@H](CO)N(Cc1cc(F)ccc1F)CC31CN(C)C1 the AC50 [21] was 6.53 µM (active).

For O=C(Nc1ccccc1)N1C[C@@H]2[C@H](c3ccccc31)[C@H](CO)N2Cc1cocn1, the AC50 [22] was 9.02 µM (active).

For CC(C)N(CC(=O)Nc1ccccc1)S(C)(=O)=O, the EC50 [23] was 10 µM (inconclusive).

With CCN1CCN(Cc2nc3ccc(C#N)cc3c(=O)n2-c2ccccc2)CC1 the IC50 [24] was 1.14 µM (active).

With CC(=NNC(=O)CSc1nnc(-c2ccc(C(C)(C)C)cc2)n1-c1ccccc1)c1cccc2ccccc12 the IC50 [25] was > 69.5 µM (inactive), the IC50 [26] was > 69.5 µM (inactive) and the IC50 [3] was > 69.5 µM (inactive).

In the case of CCOC(=O)C1(CCOC)CCN(Cc2cnc(-c3cccc(C)c3)nc2)CC1, the CC50 [27] is reported as > 40 µM (active) and the AC50 [28] is reported as > 30 µM (inactive).
